Data set [1] concerns the target hSGLT2 (Homo sapiens (Human), UniProt P31639). Nature of the data set: IC50 of inhibition on SGLT2 (method of Meng et al., J. Med. Chem. 2008). It counts as cell-based. The following applies: compared with methoxyl and methyl analogues of Table 3.
The nature of data set [2]: Influencing factors test: higher humidity stability. To be noted: listed as I-D1-6 raw materials. It is filed as physicochemical. The source says:
(§1) The appearance, number of impurity and the amount of impurity (measured by HPLC) are compared with that of day 0.

Data set [3] relates to SD rats (type 2 diabetes model). Nature of the data set: Urine glucose excretion in streptozotocin/high-fat high-sucrose diet type 2 diabetes model rats, glucose-oxidase method. It is filed as in vivo, rat. To be noted: compared with analogues or non-deoxy compounds. As to the method:
The health SD rats are injected intraperitoneally with multiple low doses of streptozotocin for modeling (type 2 diabetes model) after feeding with high-fat and high-sucrose diet, and the content of blood glucose is measured before and after modeling. After the modeling successful, the rats for modeling are randomly divided (8 rats/group) into one blank group (administering the same volume of 0.5% CMC sodium solution) and several groups for compounds to be tested (6 mg/kg) according to the content of 24-hour urine glucose and the body weight. Rats in each group are fasted for 16 hours before experiment. The experimental rats are administered intragastrically with glucose (2 g/kg) at 0.5 h after intragastrical administration with compounds to be tested. The urine is collected at the time-period of 0-12 h after administration, and the urine glucose values are measured at each time-period by glucose-oxidase method. […]

A short description of data set [4]: Influencing factors test: light stability. It is filed as physicochemical. To be noted: listed as I-D1-6 raw materials.
Source text: as §1

The target of data set [5] is hSGLT1 (Homo sapiens (Human), UniProt P13866). Nature of the data set: IC50 of inhibition on SGLT1 (method of Meng et al., J. Med. Chem. 2008). It counts as cell-based. The following applies: compared with methoxyl and methyl analogues of Table 3.
Chain of hSGLT1 (P13866 whole entry): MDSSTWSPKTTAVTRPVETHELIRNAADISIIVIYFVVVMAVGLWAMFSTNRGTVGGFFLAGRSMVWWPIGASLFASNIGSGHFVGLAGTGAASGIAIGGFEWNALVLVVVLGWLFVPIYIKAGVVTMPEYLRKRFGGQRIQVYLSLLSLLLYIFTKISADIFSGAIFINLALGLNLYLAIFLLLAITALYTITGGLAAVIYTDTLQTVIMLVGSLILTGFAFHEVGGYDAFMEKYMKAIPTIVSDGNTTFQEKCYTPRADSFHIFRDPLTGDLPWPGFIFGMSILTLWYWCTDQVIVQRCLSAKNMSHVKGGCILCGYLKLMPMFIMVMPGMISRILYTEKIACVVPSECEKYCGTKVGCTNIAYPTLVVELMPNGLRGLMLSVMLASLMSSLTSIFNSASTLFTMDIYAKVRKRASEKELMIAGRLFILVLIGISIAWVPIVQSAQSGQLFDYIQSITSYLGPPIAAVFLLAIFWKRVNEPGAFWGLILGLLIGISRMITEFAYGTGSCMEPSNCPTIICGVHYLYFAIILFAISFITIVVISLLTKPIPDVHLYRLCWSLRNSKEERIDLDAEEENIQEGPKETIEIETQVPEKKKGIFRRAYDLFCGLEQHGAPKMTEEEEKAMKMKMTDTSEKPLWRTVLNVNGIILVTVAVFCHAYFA
Data set [6] can be described thus: Influencing factors test: higher temperature stability. To be noted: listed as I-D1-6 raw materials. It counts as physicochemical.
Source text: as §1

The structures appear in SMILES notation.

The values below come from patent publication US10294259B2, “Phenyl c-glucoside derivative containing deoxyglucose structure, preparation method and use thereof” (Tianjin Institute of Pharmaceutical Research, priority 2012, dated 2019).

Chain of hSGLT2 (P31639 whole entry): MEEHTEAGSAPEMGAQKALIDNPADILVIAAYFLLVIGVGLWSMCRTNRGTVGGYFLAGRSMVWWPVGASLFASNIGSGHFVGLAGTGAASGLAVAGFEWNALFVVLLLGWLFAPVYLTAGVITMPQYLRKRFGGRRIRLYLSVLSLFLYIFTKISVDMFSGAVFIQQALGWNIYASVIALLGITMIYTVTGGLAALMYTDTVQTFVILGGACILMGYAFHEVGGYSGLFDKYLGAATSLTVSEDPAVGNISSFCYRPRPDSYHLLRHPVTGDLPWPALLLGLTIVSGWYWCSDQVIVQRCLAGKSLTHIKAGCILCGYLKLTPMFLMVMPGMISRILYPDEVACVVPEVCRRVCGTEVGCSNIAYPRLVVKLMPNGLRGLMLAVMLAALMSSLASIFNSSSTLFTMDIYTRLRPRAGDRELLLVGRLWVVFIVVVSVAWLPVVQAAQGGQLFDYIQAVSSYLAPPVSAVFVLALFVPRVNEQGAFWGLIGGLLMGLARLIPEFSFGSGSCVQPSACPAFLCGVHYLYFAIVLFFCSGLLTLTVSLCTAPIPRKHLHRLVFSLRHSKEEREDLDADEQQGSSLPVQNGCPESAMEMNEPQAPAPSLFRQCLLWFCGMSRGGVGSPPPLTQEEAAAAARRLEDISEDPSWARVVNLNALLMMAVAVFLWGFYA

Take `CCOc1ccc(Cc2cc(C3OC(C)C(O)C(O)C3O)ccc2Cl)cc1` [I-D1-6, (1S)-1-[4-chloro-3-(4-ethoxybenzyl)phenyl]-1,6-dideoxy-D-glucose]: in data set [1], the “inhibition to SGLT2 (comparison in words)” value is recorded as “much stronger inhibition to SGLT2”. The “selectivity on SGLT1/SGLT2 (comparison in words)” value in data set [1] is given as “much better selectivity on SGLT1/SGLT2”. For the same compound, the Appearance entry in data set [2] (higher humidity (30% relative humidity at 30° C.), day 0) is reported as “white, foam-like”; in data set [2] (higher humidity, day 7), “white foam-like”; in data set [2] (higher humidity, day 14), “white foam-like”; in data set [4] (light (natural daylight, about 80000 Lx), day 0), “a white, foam-like”; in data set [4] (light, day 7), “a white, foam-like”; in data set [4] (light, day 14), “a white, foam-like”. Besides, the Appearance result in data set [6] (45° C., day 7) was “white, foam-like”; in data set [6] (45° C., day 14), “white, foam-like”; in data set [6] (higher temperature (45° C.), day 0), “white, foam-like”. For the same compound, in data set [3], the “urine glucose excretion effect (comparison in words)” value is on record as “stronger urine glucose excretion effect”. For the same compound, the “inhibition to SGLT1 (comparison in words)” value in data set [5] was “much less inhibition to SGLT1”. Moreover, the Number of impurity in data set [6] (45° C., day 0, HPLC) came to 7; in data set [6] (45° C., day 7, HPLC), 8; in data set [6] (45° C., day 14, HPLC) it was 9. For the same compound, the “Total amount of impurity (%)” value in data set [6] (45° C., day 0, HPLC) is 0.89%; in data set [6] (45° C., day 7, HPLC), 0.97%.
